The values below come from patent publication US20240238422A1 (Osprey Biopharmaceuticals, Inc., priority 2021, published 2024).

For assay [1], the target named is T1, human CD22 (Homo sapiens, UniProt P20273).
T1 construct: Fc (human CD22-Fc fusion); purchased R&D Systems AV11968-050
Description: SPR binding of synthetic Siglec ligands to human CD22 ectodomain (Biacore 8K+). The following applies: for Human Siglec-2 Binding Affinity: grade in words for the conjugatable Siglec ligand-linker; for Kd: SPR, alkyne-terminating precursors of the PFP linkers, read-out: Human Siglec-2 Binding Affinity. The protocol: (§1) The following ligands were evaluated for mouse and human CD22 binding: 1) BPC-Neu5Gc PEG (Cpd. No. 26463), 2) BPC-Neu5Gc GAL (Cpd. No. 26339), 3) MPB-Neu5Ac PEG (Cpd. No. 26334), 4) MPB-Neu5Ac GAL (Cpd. No. 26409), 5) Neu5Gc PEG (Cpd. No. 26591). All tested compounds are alkyne-terminating precursors of PFP-terminating, conjugatable Siglec Linker structures used in conjugates in the following examples.
(§2) Binding assays for synthetic CD22 ligand binding to CD22 receptor ectodomain were run on a Biacore 8K+ instrument (Cytiva). Surface preparation for CD22 conjugates binding to human or mouse CD22 protein consisted of two steps, covalent immobilization of streptavidin followed by capture of Avi-tagged and biotinylated human CD22-Fc fusion (R&D Systems, Cat #AV11968-050) and a mono-Fc fusion of mouse CD22. Using standard amine coupling protocols, Streptavidin (Invitrogen, Cat #: 434301) was immobilized to a Cytiva CM5 chip (Cytiva, Cat #BR100530) by injecting at 100 ug/mL in Sodium Acetate, pH 4.5 (Cytiva, Cat #BR100350) on both flow cells, yielding a final response of 2500 RU. Capture of biotinylated mono Fc human CD22 was performed on channels 1-4 and mouse CD22 on channels 5-8 on the active flow cell (2) and the reference flow cell (1) was kept as unmodified streptavidin to account for any non-specific binding. Human CD22 or mouse CD22 (mono-Fc fusion, 5 μg/mL) was injected on the active flow cell (2) for 90 seconds at 5 μL/min, yielding about 210 RU of captured constructs.
(§3) Binding experiments of Siglec-ligand conjugated proteins were performed on the surfaces prepared above in HBS-EP+ (10 mM HEPES, 150 mM NaCl, 3 mM EDTA, 0.05% Tween-20, pH 7.5) as the running buffer. Conjugates were serially diluted 1:1 in running buffer from 1 μM to 31.25 nM and injected over both the reference and active flow cells for 90 seconds at 30 μL/min. The conjugates were then allowed to dissociate from the surface for 300 seconds. No regeneration was required as the conjugates completely dissociated from the surface after 30 seconds.
On the technique in general: In SPR one partner is held on a chip, and binding of the other changes the refractive index at the surface.

Assay [2] deals with T2, mouse CD22 (Mus musculus, UniProt P35329).
T2 construct: synthetic Siglec ligands for recombinant human and mouse CD22 ectodomains
T2 sequence (P35329 22-708 limits assumed): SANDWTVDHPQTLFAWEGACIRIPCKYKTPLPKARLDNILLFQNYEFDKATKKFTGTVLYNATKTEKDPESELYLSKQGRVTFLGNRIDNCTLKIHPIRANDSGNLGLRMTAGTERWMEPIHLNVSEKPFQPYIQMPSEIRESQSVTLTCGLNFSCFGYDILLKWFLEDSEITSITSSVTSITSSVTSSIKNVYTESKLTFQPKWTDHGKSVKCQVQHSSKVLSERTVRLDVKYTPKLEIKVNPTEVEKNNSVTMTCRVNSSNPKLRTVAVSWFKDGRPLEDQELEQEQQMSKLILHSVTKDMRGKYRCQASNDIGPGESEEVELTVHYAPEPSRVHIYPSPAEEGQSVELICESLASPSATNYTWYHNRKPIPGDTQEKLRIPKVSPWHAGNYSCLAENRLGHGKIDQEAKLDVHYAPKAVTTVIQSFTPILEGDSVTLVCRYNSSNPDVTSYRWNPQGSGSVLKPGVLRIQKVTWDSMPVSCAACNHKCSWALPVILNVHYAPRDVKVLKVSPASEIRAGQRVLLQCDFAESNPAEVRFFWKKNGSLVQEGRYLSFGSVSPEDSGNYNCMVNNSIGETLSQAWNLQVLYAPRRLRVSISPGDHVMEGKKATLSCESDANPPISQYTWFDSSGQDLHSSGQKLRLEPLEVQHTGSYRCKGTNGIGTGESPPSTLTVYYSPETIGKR
The experiment in a line: SPR binding of synthetic Siglec ligands to mouse CD22 ectodomain (Biacore 8K+). The following applies: for Mouse Siglec-2 Binding Affinity: grade in words for the conjugatable Siglec ligand-linker; for Kd: SPR, alkyne-terminating precursors of the PFP linkers, read-out: Mouse Siglec-2 Binding Affinity. The protocol: as §1, §2, §3

T1 sequence (P20273 20-687 limits assumed): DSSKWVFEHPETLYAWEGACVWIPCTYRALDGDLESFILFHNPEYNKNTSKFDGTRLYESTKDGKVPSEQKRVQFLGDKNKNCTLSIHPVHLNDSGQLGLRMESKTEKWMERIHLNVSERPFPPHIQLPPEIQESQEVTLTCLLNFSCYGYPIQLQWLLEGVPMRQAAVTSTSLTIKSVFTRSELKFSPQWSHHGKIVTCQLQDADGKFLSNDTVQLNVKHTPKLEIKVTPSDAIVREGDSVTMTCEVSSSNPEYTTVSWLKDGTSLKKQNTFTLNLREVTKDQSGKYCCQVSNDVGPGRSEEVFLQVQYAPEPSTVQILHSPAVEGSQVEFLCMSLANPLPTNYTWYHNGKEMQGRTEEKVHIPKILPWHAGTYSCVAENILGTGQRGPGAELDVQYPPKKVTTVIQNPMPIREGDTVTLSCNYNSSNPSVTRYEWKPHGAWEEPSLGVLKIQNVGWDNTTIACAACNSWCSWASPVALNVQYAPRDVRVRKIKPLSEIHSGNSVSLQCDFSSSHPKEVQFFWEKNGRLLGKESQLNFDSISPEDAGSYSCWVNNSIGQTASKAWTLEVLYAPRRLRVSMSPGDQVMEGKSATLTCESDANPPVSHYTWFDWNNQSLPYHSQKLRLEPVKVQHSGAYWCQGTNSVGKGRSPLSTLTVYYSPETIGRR

As for `O=C(CCOCCOCCn1cc(COCCOCCO[C@]2(C(=O)O)C[C@H](O)[C@@H](NC(=O)CO)[C@H]([C@H](O)[C@H](O)CNC(=O)Cc3ccc(-c4ccccc4)cc3)O2)nn1)NCCCC[C@H](NC(=O)CCCNC(=O)CCOCCOCCn1cc(COCCOCCO[C@]2(C(=O)O)C[C@H](O)[C@@H](NC(=O)CO)[C@H]([C@H](O)[C@H](O)CNC(=O)Cc3ccc(-c4ccccc4)cc3)O2)nn1)C(=O)NCCOCCOCCOCCOCCC(=O)Oc1c(F)c(F)c(F)c(F)c1F` [Cpd. No. 26475], the “Human Siglec-2 Binding Affinity” value in assay [1] was “Strong”. Also, in assay [2], the “Mouse Siglec-2 Binding Affinity” value was “Strong”.
As for `O=C(CCOCCOCCn1cc(CCO[C@@H]2O[C@H](CO[C@]3(C(=O)O)C[C@H](O)[C@@H](NC(=O)CO)[C@H]([C@H](O)[C@H](O)CNC(=O)Cc4ccc(-c5ccccc5)cc4)O3)[C@H](O)[C@H](O)[C@H]2O)nn1)NCCCCC(NC(=O)CCCNC(=O)CCOCCOCCn1cc(CCO[C@@H]2O[C@H](CO[C@]3(C(=O)O)C[C@H](O)[C@@H](NC(=O)CO)[C@H]([C@H](O)[C@H](O)CNC(=O)Cc4ccc(-c5ccccc5)cc4)O3)[C@H](O)[C@H](O)[C@H]2O)nn1)C(=O)NCCOCCOCCOCCOCCC(=O)Oc1c(F)c(F)c(F)c(F)c1F` (mixture of isomers) [Cpd. No. 26416], the “Human Siglec-2 Binding Affinity” value in assay [1] was “Strong”. In addition, the “Mouse Siglec-2 Binding Affinity” value in assay [2] is “Strong”.
Consider `C#CCOCCOCCO[C@]1(C(=O)O)C[C@H](O)[C@@H](NC(C)=O)[C@H]([C@H](O)[C@H](O)CNC(=O)c2cccc(Oc3ccccc3)c2)O1` [Cpd. No. 26334, (2R,4S,5R,6R)-5-acetamido-6-((1R,2R)-1,2-dihydroxy-3-(3-phenoxybenzamido)propyl)-4-hydroxy-2-(2-(2-(prop-2-yn-1-yloxy)ethoxy)ethoxy)tetrahydro-2H-pyran-2-carboxylic acid], for which the Kd in assay [1] was 930 nM; in assay [2], > 100000 nM.
On to `O=C(CCOCCOCCn1cc(COCCOCCO[C@]2(C(=O)O)C[C@H](O)[C@@H](NC(=O)CO)[C@H]([C@H](O)[C@H](O)CNC(=O)Cc3ccc(-c4ccccc4)cc3)O2)nn1)NCCCC[C@H](NC(=O)CCCNC(=O)CCOCCOCCn1cc(COCCOCCO[C@]2(C(=O)O)C[C@H](O)[C@@H](NC(=O)CO)[C@H]([C@H](O)[C@H](O)CNC(=O)Cc3ccc(-c4ccccc4)cc3)O2)nn1)C(=O)N[C@@H](CCCCNC(=O)CCOCCOCCn1cc(COCCOCCO[C@]2(C(=O)O)C[C@H](O)[C@@H](NC(=O)CO)[C@H]([C@H](O)[C@H](O)CNC(=O)Cc3ccc(-c4ccccc4)cc3)O2)nn1)C(=O)NCCOCCOCCOCCOCCC(=O)Oc1c(F)c(F)c(F)c(F)c1F` [Cpd. No. 26477], for which, in assay [1], the “Human Siglec-2 Binding Affinity” value is recorded as “Strong”. Further, the “Mouse Siglec-2 Binding Affinity” value in assay [2] is given as “Strong”.
Turning to `CC(=O)N[C@H]1[C@H]([C@H](O)[C@H](O)CNC(=O)c2cccc(Oc3ccccc3)c2)O[C@@](OC[C@H]2O[C@@H](OCCc3cn(CCOCCOCCOCCOCCC(=O)Oc4c(F)c(F)c(F)c(F)c4F)nn3)[C@H](O)[C@@H](O)[C@H]2O)(C(=O)O)C[C@@H]1O` [Cpd. No. 24906, (2R,4S,5R,6R)-5-acetamido-6-((1R,2R)-1,2-dihydroxy-3-(3-phenoxybenzamido)propyl)-4-hydroxy-2-(((2R,3R,4S,5R,6R)-3,4,5-trihydroxy-6-(2-(1-(15-oxo-15-(perfluorophenoxy)-3,6,9,12-tetraoxapentadecyl)-1H-1,2,3-triazol-4-yl)ethoxy)tetrahydro-2H-pyran-2-yl)methoxy)tetrahydro-2H-pyran-2-carboxylic acid], the “Human Siglec-2 Binding Affinity” value in assay [1] is recorded as “Strong”. Further, the “Mouse Siglec-2 Binding Affinity” value in assay [2] is “V. weak”.
With `C#CCCO[C@@H]1O[C@H](CO[C@]2(C(=O)O)C[C@H](O)[C@@H](NC(=O)CO)[C@H]([C@H](O)[C@H](O)CNC(=O)Cc3ccc(-c4ccccc4)cc3)O2)[C@H](O)[C@H](O)[C@H]1O`, the Kd came out at 2500 nM in assay [1] and 17200 nM in assay [2].
For `O=C(CO)N[C@H]1[C@H]([C@H](O)[C@H](O)CO)O[C@@](OCCOCCOCc2cn(CCOCCOCCOCCOCCC(=O)Oc3c(F)c(F)c(F)c(F)c3F)nn2)(C(=O)O)C[C@@H]1O` [Cpd. No. 26614, (2R,4S,5R,6R)-4-hydroxy-5-(2-hydroxyacetamido)-2-(2-(2-((1-(15-oxo-15-(perfluorophenoxy)-3,6,9,12-tetraoxapentadecyl)-1H-1,2,3-triazol-4-yl)methoxy)ethoxy)ethoxy)-6-((1R,2R)-1,2,3-trihydroxypropyl)tetrahydro-2H-pyran-2-carboxylic acid], the “Human Siglec-2 Binding Affinity” value in assay [1] is given as “Weak”. In addition, the “Mouse Siglec-2 Binding Affinity” value in assay [2] is given as “Weak”.
`O=C(CCOCCOCCn1cc(COCCOCCOCCOCCO)nn1)NCCCC[C@@H](NC(=O)CCCNC(=O)CCOCCOCCn1cc(COCCOCCOCCOCCO)nn1)C(=O)NCCOCCOCCOCCOCCC(=O)Oc1c(F)c(F)c(F)c(F)c1F` [Cpd. No. 26532, perfluorophenyl (R)-1-(4-(13-hydroxy-2,5,8,11-tetraoxatridecyl)-1H-1,2,3-triazol-1-yl)-16-(4-(3-(2-(2-(4-(13-hydroxy-2,5,8,11-tetraoxatridecyl)-1H-1,2,3-triazol-1-yl)ethoxy)ethoxy)propanamido)butyl)-9,14,17-trioxo-3,6,21,24,27,30-hexaoxa-10,15,18-triazatritriacontan-33-oate]: in assay [1], the “Human Siglec-2 Binding Affinity” value is “No Binding”. Moreover, the “Mouse Siglec-2 Binding Affinity” value in assay [2] is listed as “No Binding”.
For the compound `O=C(CCOCCOCCOCCOCCn1cc(COCCOCCOCCOCCO)nn1)Oc1c(F)c(F)c(F)c(F)c1F` [Cpd. No. 26530, perfluorophenyl 1-(4-(13-hydroxy-2,5,8,11-tetraoxatridecyl)-1H-1,2,3-triazol-1-yl)-3,6,9,12-tetraoxapentadecan-15-oate], the “Human Siglec-2 Binding Affinity” value in assay [1] is reported as “No Binding”. Also, the “Mouse Siglec-2 Binding Affinity” value in assay [2] is reported as “No Binding”.
With `O=C(CCOCCOCCn1cc(COCCOCCO[C@]2(C(=O)O)C[C@H](O)[C@@H](NC(=O)CO)[C@H]([C@H](O)[C@H](O)CO)O2)nn1)NCCCC[C@H](NC(=O)CCCNC(=O)CCOCCOCCn1cc(COCCOCCO[C@]2(C(=O)O)C[C@H](O)[C@@H](NC(=O)CO)[C@H]([C@H](O)[C@H](O)CO)O2)nn1)C(=O)NCCOCCOCCOCCOCCC(=O)Oc1c(F)c(F)c(F)c(F)c1F` [Cpd. No. 26615], the “Human Siglec-2 Binding Affinity” value in assay [1] is recorded as “Weak”. Besides, the “Mouse Siglec-2 Binding Affinity” value in assay [2] was “Weak”.
Take `C#CCOCCOCCO[C@]1(C(=O)O)C[C@H](O)[C@@H](NC(=O)CO)[C@H]([C@H](O)[C@H](O)CNC(=O)Cc2ccc(-c3ccccc3)cc2)O1` [Cpd. No. 26463, (2R,4S,5R,6R)-6-((1R,2R)-3-(2-([1,1′-biphenyl]-4-yl)acetamido)-1,2-dihydroxypropyl)-4-hydroxy-5-(2-hydroxyacetamido)-2-(2-(2-(prop-2-yn-1-yloxy)ethoxy)ethoxy)tetrahydro-2H-pyran-2-carboxylic acid]: the Kd in assay [1] came out at 1300 nM; in assay [2], 9600 nM.
For `C#CCCO[C@@H]1O[C@H](CO[C@]2(C(=O)O)C[C@H](O)[C@@H](NC(C)=O)[C@H]([C@H](O)[C@H](O)CNC(=O)c3cccc(Oc4ccccc4)c3)O2)[C@H](O)[C@H](O)[C@H]1O` [Cpd. No. 26409, (2R,4S,5R,6R)-5-acetamido-2-(((2R,3R,4S,5R,6R)-6-(but-3-yn-1-yloxy)-3,4,5-trihydroxytetrahydro-2H-pyran-2-yl)methoxy)-6-((1R,2R)-1,2-dihydroxy-3-(3-phenoxybenzamido)propyl)-4-hydroxytetrahydro-2H-pyran-2-carboxylic acid], in that order: 1000 nM and > 100000 nM.
